The values below come from US8198273B2, “Compounds and methods for kinase modulation, and indications therefor” (Plexxikon Inc., priority 2009, dated 2012).

Molecules are shown by their SMILES. Where only a bound is given, the exact number is not on record here.

One series has as its target CYP3A4(BQ) (Homo sapiens, UniProt P08684). The series can be described thus: CYP3A4(BQ) inhibition (fluorescent substrate). In kind it is in vitro ADME. The note with it: read-out: Cyp IC50 3A4(BQ). Here is the method: CYP (Cytochrome P450) enzymes are the major drug metabolizing enzymes present in the liver. The inhibition of CYP enzyme activity (IC50) for each of CYP1A2, CYP2C19, CYP2C9, CYP2D6, CYP3A4(BFC) and CYP3A4(BQ) is determined for compounds, where inhibition of metabolism of a known substrate leads to a decrease in the fluorescence of the metabolized product. The fluorescence of the product is monitored as a function of compound concentration. Compounds are dissolved in dimethyl sulfoxide to a concentration of 100 mM. These are diluted 1 μL into 82 μL of acetonitrile. […] These are then serially diluted 1:1 (160 μL to 160 μL co-factor mix) for a total of 10 points. A 10 μL aliquot of this final mixture is dispensed into 384 well assay plates and incubated for 10 minutes at 37° C. […] Assay plates are incubated at 37° C. […] The signal versus compound concentration is used to determine the IC50. The enzymes and substrates for this assay are obtained from BD Biosciences.

The next series has as its target B-Raf (Homo sapiens, UniProt P15056). The series can be described thus: B-Raf biochemical kinase inhibition (AlphaScreen, biotin-MEK1 substrate). The note with it: 100 μM ATP. Here is the method: Compounds to be tested are diluted in dimethyl sulfoxide to a concentration of 0.1 mM. These are serially diluted 15 μL into 30 μL of dimethyl sulfoxide seven times in 96 well plates for a total of 8 dilution points, and for each dilution point 1 μL is added to a well of an assay plate. […] The reaction is started with addition of 10 μL of 200 μM ATP (i.e. final 100 μM ATP). […] The plates are incubated for 3 hours at room temperature and read on Envision reader (Perkin Elmer). […] The signal vs. compound concentration is used to determine the IC50.

For a further series, the target named is CYP2D6 (Homo sapiens, UniProt P10635). The series can be described thus: CYP2D6 inhibition (fluorescent substrate). The following applies: CYP2D6, AMMC substrate; read-out: Cyp IC50 2D6. In kind it is in vitro ADME. Here is the method: CYP (Cytochrome P450) enzymes are the major drug metabolizing enzymes present in the liver. The inhibition of CYP enzyme activity (IC50) for each of CYP1A2, CYP2C19, CYP2C9, CYP2D6, CYP3A4(BFC) and CYP3A4(BQ) is determined for compounds, where inhibition of metabolism of a known substrate leads to a decrease in the fluorescence of the metabolized product. The fluorescence of the product is monitored as a function of compound concentration.
Compounds are dissolved in dimethyl sulfoxide to a concentration of 100 mM. These are diluted 1 μL into 82 μL of acetonitrile. […] These are then serially diluted 1:1 (160 μL to 160 μL co-factor mix) for a total of 10 points. A 10 μL aliquot of this final mixture is dispensed into 384 well assay plates and incubated for 10 minutes at 37° C. […] Assay plates are incubated at 37° C. […] The signal versus compound concentration is used to determine the IC50. The enzymes and substrates for this assay are obtained from BD Biosciences.

Sequence of B-Raf (P15056 whole entry): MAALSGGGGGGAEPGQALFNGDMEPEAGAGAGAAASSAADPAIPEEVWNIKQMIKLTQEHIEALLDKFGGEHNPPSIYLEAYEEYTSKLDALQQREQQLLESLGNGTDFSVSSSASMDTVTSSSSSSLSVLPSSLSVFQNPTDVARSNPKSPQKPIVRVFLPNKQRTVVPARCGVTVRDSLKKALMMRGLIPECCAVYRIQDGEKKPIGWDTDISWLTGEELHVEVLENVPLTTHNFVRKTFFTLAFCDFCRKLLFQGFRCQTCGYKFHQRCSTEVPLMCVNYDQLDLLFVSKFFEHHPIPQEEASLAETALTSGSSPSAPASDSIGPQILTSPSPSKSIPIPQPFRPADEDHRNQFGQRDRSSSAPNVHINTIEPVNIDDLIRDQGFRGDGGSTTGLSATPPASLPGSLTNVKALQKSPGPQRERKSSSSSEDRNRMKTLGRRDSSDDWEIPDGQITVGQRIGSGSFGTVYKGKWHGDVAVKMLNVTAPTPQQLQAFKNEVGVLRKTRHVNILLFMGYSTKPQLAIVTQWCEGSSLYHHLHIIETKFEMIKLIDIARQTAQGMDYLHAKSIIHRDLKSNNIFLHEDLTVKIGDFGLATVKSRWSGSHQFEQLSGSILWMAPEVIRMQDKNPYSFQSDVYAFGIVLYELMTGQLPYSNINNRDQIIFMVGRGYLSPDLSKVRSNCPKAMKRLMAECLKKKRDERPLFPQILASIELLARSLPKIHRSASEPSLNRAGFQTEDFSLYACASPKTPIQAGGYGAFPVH
Sequence of CYP3A4(BQ) (P08684 whole entry): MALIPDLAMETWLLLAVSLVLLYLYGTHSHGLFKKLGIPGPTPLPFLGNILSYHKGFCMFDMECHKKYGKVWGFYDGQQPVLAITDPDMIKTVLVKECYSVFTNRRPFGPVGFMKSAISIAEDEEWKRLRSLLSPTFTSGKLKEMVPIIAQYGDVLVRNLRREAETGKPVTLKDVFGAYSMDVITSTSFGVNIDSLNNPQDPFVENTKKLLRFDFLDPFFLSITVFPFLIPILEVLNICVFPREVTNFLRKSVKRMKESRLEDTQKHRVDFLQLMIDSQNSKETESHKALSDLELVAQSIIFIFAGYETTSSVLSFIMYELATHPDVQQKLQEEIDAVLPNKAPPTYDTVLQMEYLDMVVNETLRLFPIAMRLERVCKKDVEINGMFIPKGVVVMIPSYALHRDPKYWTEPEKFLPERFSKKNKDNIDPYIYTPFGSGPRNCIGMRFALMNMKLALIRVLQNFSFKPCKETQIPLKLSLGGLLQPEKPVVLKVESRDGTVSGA
Sequence of CYP2D6 (P10635 whole entry): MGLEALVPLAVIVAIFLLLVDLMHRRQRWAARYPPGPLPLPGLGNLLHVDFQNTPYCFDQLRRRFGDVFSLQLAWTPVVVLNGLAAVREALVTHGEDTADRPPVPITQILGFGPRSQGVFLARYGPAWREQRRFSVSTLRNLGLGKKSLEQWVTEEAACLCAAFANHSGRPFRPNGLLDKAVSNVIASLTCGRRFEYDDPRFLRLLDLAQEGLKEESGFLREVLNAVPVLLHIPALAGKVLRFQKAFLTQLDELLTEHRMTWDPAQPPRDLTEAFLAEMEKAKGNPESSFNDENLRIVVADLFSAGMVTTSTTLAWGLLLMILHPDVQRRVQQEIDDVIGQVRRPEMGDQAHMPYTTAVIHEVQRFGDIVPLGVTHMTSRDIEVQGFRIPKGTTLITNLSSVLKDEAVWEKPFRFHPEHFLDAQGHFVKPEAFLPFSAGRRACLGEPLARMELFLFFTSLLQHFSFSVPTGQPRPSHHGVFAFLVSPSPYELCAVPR

In the case of `CCCS(=O)(=O)Nc1ccc(F)c(C(=O)c2c[nH]c3ncc(-c4cnc(N5CCOCC5)nc4)cc23)c1F` [P-2197, Propane-1-sulfonic acid {2,4-difluoro-3-[5-(2-morpholin-4-yl-pyrimidin-5-yl)-1H-pyrrolo[2,3-b]pyridine-3-carbonyl]-phenyl}-amide], the IC50 at CYP3A4(BQ) is above 10 µM; at B-Raf, below 0.01 µM; at CYP2D6 it was above 10 µM.
For the compound `COc1ncc(-c2cnc3[nH]cc(C(=O)c4c(F)ccc(NS(=O)(=O)c5cc(F)ccc5F)c4F)c3c2)cn1` [P-2042, N-{2,4-Difluoro-3-[5-(2-methoxy-pyrimidin-5-yl)-1H-pyrrolo[2,3-b]pyridine-3-carbonyl]-phenyl}-2,5-difluoro-benzenesulfonamide], the IC50 on CYP3A4(BQ) is above 10 µM; at B-Raf, below 0.01 µM; on CYP2D6, above 10 µM.
For the compound `COc1ncc(-c2cnc3[nH]cc(C(=O)c4c(F)ccc(NS(=O)(=O)c5ccccc5F)c4F)c3c2)cn1` [P-2041, N-{2,4-Difluoro-3-[5-(2-methoxy-pyrimidin-5-yl)-1H-pyrrolo[2,3-b]pyridine-3-carbonyl]-phenyl}-2-fluoro-benzenesulfonamide], the IC50 at CYP3A4(BQ) is above 10 µM; at B-Raf it was below 0.01 µM; at CYP2D6, above 10 µM.
As to `CCCS(=O)(=O)Nc1ccc(F)c(C(=O)c2c[nH]c3ncc(-c4ccc(OCCN5CCCC5)nc4)cc23)c1F` [P-2233, Propane-1-sulfonic acid (2,4-difluoro-3-{5-[6-(2-pyrrolidin-1-yl-ethoxy)-pyridin-3-yl]-1H-pyrrolo[2,3-b]pyridine-3-carbonyl}-phenyl)-amide], the IC50 on CYP3A4(BQ) is above 10 µM; against B-Raf it was below 0.01 µM; at CYP2D6, above 10 µM.
Take `CCCS(=O)(=O)Nc1ccc(F)c(C(=O)c2c[nH]c3ncc(-c4ccc(N5CCCC5)nc4)cc23)c1F` [P-2231, Propane-1-sulfonic acid {2,4-difluoro-3-[5-(6-pyrrolidin-1-yl-pyridin-3-yl)-1H-pyrrolo[2,3-b]pyridine-3-carbonyl]-phenyl}-amide]: the values for the IC50 on CYP3A4(BQ), at B-Raf and at CYP2D6 were above 10 µM, below 0.01 µM and above 10 µM, respectively.
On to `CCCS(=O)(=O)Nc1ccc(F)c(C(=O)c2c[nH]c3ncc(-c4ccc(C(=O)NC)nc4)cc23)c1F` [P-2180, 5-{3-[2,6-Difluoro-3-(propane-1-sulfonylamino)-benzoyl]-1H-pyrrolo[2,3-b]pyridin-5-yl}-pyridine-2-carboxylic acid methylamide], for which the concentration for half-maximal inhibition (IC50) at CYP3A4(BQ) is above 10 µM; against B-Raf, below 0.01 µM; at CYP2D6 it was above 10 µM.
`CCCS(=O)(=O)Nc1cccc(C(=O)c2c[nH]c3ncc(-c4cnc(N(C)C)nc4)cc23)c1F` [P-2408, Propane-1-sulfonic acid {3-[5-(2-dimethylamino-pyrimidin-5-yl)-1H-pyrrolo[2,3-b]pyridine-3-carbonyl]-2-fluoro-phenyl}-amide]: the IC50 at CYP3A4(BQ) is above 10 µM; on B-Raf it was below 0.01 µM; at CYP2D6, above 10 µM.
In the case of `CCCS(=O)(=O)Nc1ccc(F)c(C(=O)c2c[nH]c3ncc(-c4ccc(OCCN5CCOCC5)nc4)cc23)c1F` [P-2232, Propane-1-sulfonic acid (2,4-difluoro-3-{5-[6-(2-morpholin-4-yl-ethoxy)-pyridin-3-yl]-1H-pyrrolo[2,3-b]pyridine-3-carbonyl}-phenyl)-amide], the figures for the IC50 at CYP3A4(BQ), against B-Raf and on CYP2D6 were above 10 µM, below 0.01 µM and above 10 µM, respectively.
Consider `CCCS(=O)(=O)Nc1ccc(F)c(C(=O)c2c[nH]c3ncc(-c4cccc(S(C)(=O)=O)c4)cc23)c1F` [P-2228, Propane-1-sulfonic acid {2,4-difluoro-3-[5-(3-methanesulfonyl-phenyl)-1H-pyrrolo[2,3-b]pyridine-3-carbonyl]-phenyl}-amide], for which the values for the IC50 at CYP3A4(BQ), against B-Raf and at CYP2D6 were above 10 µM, below 0.01 µM and above 10 µM, respectively.
With `COc1ncc(-c2cnc3[nH]cc(C(=O)c4c(F)ccc(NS(=O)(=O)c5cccc(F)c5)c4F)c3c2)cn1` [P-2045, N-{2,4-Difluoro-3-[5-(2-methoxy-pyrimidin-5-yl)-1H-pyrrolo[2,3-b]pyridine-3-carbonyl]-phenyl}-3-fluoro-benzenesulfonamide], the IC50 on CYP3A4(BQ) was above 10 µM; against B-Raf, below 0.01 µM; on CYP2D6, above 10 µM.
On to `COc1ccnc2[nH]cc(C(=O)c3c(F)ccc(NS(=O)(=O)c4cccc(F)c4)c3F)c12` [P-2023, N-[2,4-Difluoro-3-(4-methoxy-1H-pyrrolo[2,3-b]pyridine-3-carbonyl)-phenyl]-3-fluoro-benzenesulfonamide], for which the figures for the IC50 at CYP3A4(BQ), at B-Raf and on CYP2D6 were below 5 µM, below 0.01 µM and above 10 µM, respectively.
Take `C#Cc1cnc2[nH]cc(C(=O)c3c(F)ccc(NS(=O)(=O)CCC)c3F)c2c1` [P-2260, Propane-1-sulfonic acid [3-(5-ethynyl-1H-pyrrolo[2,3-b]pyridine-3-carbonyl)-2,4-difluoro-phenyl]-amide]: the IC50 on CYP3A4(BQ) was 5 to 10 µM; against B-Raf it was below 0.01 µM; at CYP2D6 it was above 10 µM.
The like results for `CCCS(=O)(=O)Nc1ccc(F)c(C(=O)c2c[nH]c3ncc(-c4ccc(OCCCN5CCOCC5)nc4)cc23)c1F` [P-2236, Propane-1-sulfonic acid (2,4-difluoro-3-{5-[6-(3-morpholin-4-yl-propoxy)-pyridin-3-yl]-1H-pyrrolo[2,3-b]pyridine-3-carbonyl}-phenyl)-amide] were, in that order, 5 to 10 µM, below 0.01 µM and above 10 µM.
The like results for `CCCS(=O)(=O)Nc1ccc(F)c(C(=O)c2c[nH]c3ncc(-c4cncc(S(C)(=O)=O)c4)cc23)c1F` [P-2188, Propane-1-sulfonic acid {2,4-difluoro-3-[5-(5-methanesulfonyl-pyridin-3-yl)-1H-pyrrolo[2,3-b]pyridine-3-carbonyl]-phenyl}-amide] were, in that order, above 10 µM, below 0.01 µM and above 10 µM.
In the case of `CCCS(=O)(=O)Nc1ccc(F)c(C(=O)c2c[nH]c3ncc(-c4ccc(C(=O)NCC)nc4)cc23)c1F` [P-2151, 5-{3-[2,6-Difluoro-3-(propane-1-sulfonylamino)-benzoyl]-1H-pyrrolo[2,3-b]pyridin-5-yl}-pyridine-2-carboxylic acid ethylamide], the IC50 was above 10 µM at CYP3A4(BQ), below 0.01 µM on B-Raf and above 10 µM at CYP2D6.
For the compound `CCCS(=O)(=O)Nc1ccc(F)c(C(=O)c2c[nH]c3ncc(-c4cnc(OC)nc4OC)cc23)c1F` [P-2199, Propane-1-sulfonic acid {3-[5-(2,4-dimethoxy-pyrimidin-5-yl)-1H-pyrrolo[2,3-b]pyridine-3-carbonyl]-2,4-difluoro-phenyl}-amide], the IC50 on CYP3A4(BQ) was above 10 µM; at B-Raf it was below 0.1 µM; on CYP2D6, above 10 µM.
Consider `Cc1cnc2[nH]cc(C(=O)c3c(F)ccc(NS(=O)(=O)c4c(F)cccc4F)c3F)c2c1` [P-2024, N-[2,4-Difluoro-3-(5-methyl-1H-pyrrolo[2,3-b]pyridine-3-carbonyl)-phenyl]-2,6-difluoro-benzenesulfonamide], for which the figures for the IC50 at CYP3A4(BQ), at B-Raf and at CYP2D6 were above 10 µM, below 0.1 µM and above 10 µM, respectively.
In the case of `CCCc1ccc(-c2cnc3[nH]cc(C(=O)c4c(F)ccc(NS(=O)(=O)CCC)c4F)c3c2)cn1` [P-2224, Propane-1-sulfonic acid {2,4-difluoro-3-[5-(6-propyl-pyridin-3-yl)-1H-pyrrolo[2,3-b]pyridine-3-carbonyl]-phenyl}-amide], the IC50 on CYP3A4(BQ) was above 10 µM; against B-Raf it was below 0.01 µM; on CYP2D6, above 10 µM.
For `N#Cc1cnc2[nH]cc(C(=O)c3cccc(NS(=O)(=O)c4c(F)cccc4F)c3F)c2c1` [P-2054, N-[3-(5-Cyano-1H-pyrrolo[2,3-b]pyridine-3-carbonyl)-2-fluoro-phenyl]-2,6-difluoro-benzenesulfonamide], the IC50 at CYP3A4(BQ) was above 10 µM; against B-Raf it was below 0.1 µM; at CYP2D6 it was above 10 µM.
